# Results from ChEMBL document CHEMBL3045683, “Synthesis, characterisation and antimicrobial activities of novel 7,9-diphenyl-1,2,4-triaza-8-oxa-spiro[4.5]-decan-3-thiones” (2011).
# Columns and labels:
# Format in all cases: functional
# Escherichia coli = experiment: Antimicrobial activity against Escherichia coli after 24 hr by two-fold serial dilution method
# Aspergillus flavus = experiment: Antimicrobial activity against Aspergillus flavus after 72 to 96 hr by two-fold serial dilution method
# Pseudomonas aeruginosa = experiment: Antimicrobial activity against Pseudomonas aeruginosa after 24 hr by two-fold serial dilution method
# Salmonella typhi = experiment: Antimicrobial activity against Salmonella enterica subsp. enterica serovar Typhi after 24 hr by two-fold serial dilution method
# Staphylococcus aureus = experiment: Antimicrobial activity against Staphylococcus aureus after 24 hr by two-fold serial dilution method
# Candida albicans = experiment: Antimicrobial activity against Candida albicans after 72 to 96 hr by two-fold serial dilution method
# Rhizopus = experiment: Antimicrobial activity against Rhizopus sp. after 72 to 96 hr by two-fold serial dilution method
# Aspergillus niger = experiment: Antimicrobial activity against Aspergillus niger after 72 to 96 hr by two-fold serial dilution method
Structure (SMILES),MIC (Escherichia coli) [µg/mL],MIC (Aspergillus flavus) [µg/mL],MIC (Pseudomonas aeruginosa) [µg/mL],MIC (Salmonella typhi) [µg/mL],MIC (Staphylococcus aureus) [µg/mL],MIC (Candida albicans) [µg/mL],MIC (Rhizopus) [µg/mL],MIC (Aspergillus niger) [µg/mL]
CCC1C(c2ccccc2)OC(c2ccccc2)CC12NC(=S)NN2c1ccccc1 (centres undefined),12.5,50,12.5,25,25,25,12.5,25
CC1C(c2ccccc2)OC(c2ccccc2)CC12NC(=S)NN2c1ccccc1 (centres undefined),12.5,12.5,25,25,25,50,25,25
S=C1NN(c2ccccc2)C2(CC(c3ccccc3)OC(c3ccccc3)C2)N1 (centres undefined),50,12.5,25,50,50,50,12.5,50
CCC1C(c2ccccc2)OC(c2ccccc2)CC12NNC(=S)N2 (centres undefined),100,50,100,25,50,100,100,25
CC1C(c2ccccc2)OC(c2ccccc2)CC12NNC(=S)N2 (centres undefined),100,50,50,100,25,100,25,50
S=C1NNC2(CC(c3ccccc3)OC(c3ccccc3)C2)N1 (centres undefined),50,100,100,25,12.5,200,100,50
C[C@@H]1[C@H](O)[C@@H](C)/C=C/C=C/C=C/C=C/C=C/C=C/C=C/[C@H](O[C@@H]2O[C@H](C)[C@@H](O)[C@H](N)[C@@H]2O)C[C@@H]2O[C@](O)(C[C@@H](O)C[C@@H](O)[C@H](O)CC[C@@H](O)C[C@@H](O)CC(=O)O[C@H]1C)C[C@H](O)[C@H]2C(=O)O [AMPHOTERICIN B],–,50,–,–,–,25,25,50
O=C(O)c1cn(C2CC2)c2cc(N3CCNCC3)c(F)cc2c1=O [CIPROFLOXACIN],25,–,–,50,–,–,–,–
